Measured values from US20260200931A1, “PYRIDINE POLYCYCLIC COMPOUND INHIBITOR, PREPARATION METHOD THEREFOR AND USE THEREOF” (SHANGHAI HANSOH BIOMEDICAL CO., LTD, priority 2022, published 2026).
One block for each compound: values may come before it.

How the values were obtained:
[1] = target: T1, human CYP11B2 (Homo sapiens, UniProt P19099); assay: G-402 cell enzyme experiment, human CYP11B2 (aldosterone production, HTRF); type: cell-based; settings: G-402 cells stably expressing human CYP11B2; 1 μM 11-deoxycorticosterone; 16 h; aldosterone by HTRF
T1 construct: The main elements of an expression plasmid include ORF of human CYP11B1 or human CYP11B2; expressed in transfected cells
T1 sequence (P19099 25-503): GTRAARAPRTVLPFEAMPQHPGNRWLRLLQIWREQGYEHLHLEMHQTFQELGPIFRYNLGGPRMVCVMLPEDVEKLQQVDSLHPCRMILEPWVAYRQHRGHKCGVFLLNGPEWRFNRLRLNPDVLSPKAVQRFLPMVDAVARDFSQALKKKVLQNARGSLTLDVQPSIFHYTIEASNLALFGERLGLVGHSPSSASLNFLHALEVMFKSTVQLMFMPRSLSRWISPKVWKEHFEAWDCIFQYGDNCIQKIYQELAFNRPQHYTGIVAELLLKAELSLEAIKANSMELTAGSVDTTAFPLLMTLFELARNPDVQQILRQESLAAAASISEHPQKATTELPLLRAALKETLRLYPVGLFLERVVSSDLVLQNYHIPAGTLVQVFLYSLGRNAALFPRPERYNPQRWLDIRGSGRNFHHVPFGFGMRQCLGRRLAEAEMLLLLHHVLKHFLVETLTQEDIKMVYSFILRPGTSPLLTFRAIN
Excerpt: (§1) G-402 cell line was used as host cells to express (by transient or stable transfection) an enzyme of the human CYP11 family. Specifically, G-402 cell lines stably expressing human CYP11B1 and human CYP11B2 were established respectively. […] Therefore, the G-402 cell line is very suitable as a host cell for the ectopic expression of an enzyme of the CYP11 family.
(§2) The G-402 cell line, originally derived from renal myoblastoma, can be obtained from ATCC (CRL-1440). The main elements of an expression plasmid include ORF of human CYP11B1 or human CYP11B2, a suitable promoter (CMV promoter), and a suitable resistance marker (neomycin). The expression plasmid was transfected into G-402 cells by standard technology, and a specific antibiotic was then given for screening. The activity of the enzyme expressed by the screened monoclonal cells was assessed by 11-deoxycorticosterone (substrate of CYP11B2) and 11-deoxycortisol (substrate of CYP11B1).
(§3) The G-402 cells expressing CYP11 plasmid, as established in the above solution, were cultured in McCoy's 5a Modified Medium (ATCC Catalog No. 30-2007) containing 10% FCS and 400 μg/ml G418 in an incubator at 37° C. and 5% CO2. A cell enzyme experiment was carried out using DMEM/F12 medium containing 2.5% charcoal-treated FBS and an appropriate concentration of a substrate (1 μM 11-deoxycorticosterone or 1 μM 11-deoxycortisol). In order to detect the activity of the enzyme in the cells, the cells were plated in a 96-well plate and incubated for 16 h. The supernatant was then transfered and analyzed for the concentration of the expected product (the product of CYP11B2: aldosterone; the product of CYP11B1: cortisol). The concentrations of these products were determined by an HTRF experiment of CisBio.
(§4) In the cell enzyme experiment, the inhibitory effect of the test compound on the generated product can reflect the inhibitory effect thereof on the enzyme. The dose-dependent inhibition of the enzyme activity by the compound was calculated by plotting the concentration of the test compound (x axis) versus the measured product level (y axis). Then, the original data was fitted to a 4-parameter sigmoidal function (Morgan-Mercer-Flodin, MMF model) by least square method: y=(AB+Cx^D)/(B+x^D) in which A is the maximum y value, B is the EC50 determined by XLFit, C is the minimum y value, and D is the slope value. The maximum value A corresponds to the amount of the product detected without an inhibitor, and C corresponds to the amount of the product detected in the G402 cells expressing an empty plasmid.
(§5) The EC50 value of the compound of the present patent was determined by the above G-402 experiment system. […]

[2] = target: T2, human CYP11B1 (Homo sapiens, UniProt P15538); assay: G-402 cell enzyme experiment, human CYP11B1 (cortisol production, HTRF); selectivity of CYP11B2 over CYP11B1; type: cell-based; settings: G-402 cells expressing human CYP11B1 or CYP11B2; selectivity for CYP11B2 over CYP11B1
T2 construct: The main elements of an expression plasmid include ORF of human CYP11B1 or human CYP11B2; expressed in transfected cells
T2 sequence (P15538 25-503): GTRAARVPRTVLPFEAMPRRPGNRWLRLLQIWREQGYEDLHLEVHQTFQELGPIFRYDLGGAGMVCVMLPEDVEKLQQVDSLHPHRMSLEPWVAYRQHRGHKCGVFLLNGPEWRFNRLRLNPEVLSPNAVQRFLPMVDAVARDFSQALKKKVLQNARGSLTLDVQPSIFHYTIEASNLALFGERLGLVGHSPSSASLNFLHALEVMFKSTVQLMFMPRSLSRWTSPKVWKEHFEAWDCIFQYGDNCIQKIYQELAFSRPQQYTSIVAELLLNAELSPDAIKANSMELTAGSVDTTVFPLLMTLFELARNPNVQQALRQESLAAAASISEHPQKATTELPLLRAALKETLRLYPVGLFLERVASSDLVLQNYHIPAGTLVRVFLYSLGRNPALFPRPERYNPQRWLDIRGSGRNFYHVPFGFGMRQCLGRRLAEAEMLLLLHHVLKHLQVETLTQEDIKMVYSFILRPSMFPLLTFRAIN
Excerpt: as §1, §2, §3, §4, §5

[3] = tested on: cortisol; assay: In vivo efficacy assay, ACTH challenge: plasma cortisol; parameters: species or system cynomolgus monkeys; settings: for Cortisol, 0: 0 hour after 5 μg/kg ACTH I.V. (given one hour after dosing); for Cortisol, 1 h: 1 h after 5 μg/kg ACTH I.V.
Method: (§6) Male cynomolgus monkeys were gavaged (P.O.) with the compounds to be tested and divided into 0 mpk (vehicle group), 0.1 mpk, 0.3 mpk, 1 mpk, and 3 mpk dose groups. Each group was given 5 μg/kg ACTH intravenous injection (I.V.) after one hour. Blood samples were collected at −1 hour, 0 hour, 0.5 hours, 1.0 hour, 1.5 hours, 2 hours, and 3 hours after intravenous injection of ACTH. The volume was about 0.5 mL at each time point. The samples were centrifuged (3200 g, at 2-8° C. for 10 minutes) within one hour after collection. The contents of the plasma aldosterone, cortisol, corticosterone, 11-deoxycortisol, and 11-deoxycorticosterone at each time point were then analyzed by LC/MS-MS method.

[4] = tested on: aldosterone; assay: In vivo efficacy assay, ACTH challenge: plasma aldosterone; parameters: species or system cynomolgus monkeys; settings: for Aldosterone, 0: 0 hour after 5 μg/kg ACTH I.V. (given one hour after dosing); for Aldosterone, 0.5 h: 0.5 h after 5 μg/kg ACTH I.V.
Method: as §6

[5] = Pharmacokinetic assay in mice; type: in vivo; settings: mouse, male Balb/c mice, plasma, table does not print the route (objective: oral administration, PO 5 mg/kg)
Method: Balb/c mice were used as test animals to study the pharmacokinetic behavior of the compounds of the present disclosure in mice (plasma) after oral administration.
Compounds of the present disclosure, made in house.
3 Balb/c mice per group, male; from Shanghai Bk Lab Animal Co., Ltd., with animal production license number (SCXK (Shanghai) 2013-0006 N0.311620400001794).
0.5 g of sodium carboxymethyl cellulose (CMC-Na, viscosity: 800-1200 Cps) was weighed and dissolved in 99 mL of purified water, and 1 ml of Tween 80 was added. These materials were uniformly mixed to form a clear solution.
Examples 1 and 2 were weighed and dissolved in the solution, and the mixtures were shaken well and ultrasonicated for 15 min to obtain colorless clear solutions with a concentration of 0.5 mg/mL.
Examples 1 and 2 were weighed, and 5% of DMSO was added based on the total administration volume; the mixture was vortexed and ultrasonicated for 2 min to ensure complete dissolution; then, 10% Solutol HS15 was added, and the mixture was vortexed and ultrasonicated for 2 min to achieve complete dissolution; finally, 85% PBS was added, and the mixture was vortexed and ultrasonicated for 5 min; the resulting mixture was filtered through a […] filter membrane to obtain a colorless, transparent, and clear solution with a concentration of 0.2 mg/mL.
After overnight fasting, 3 male Balb/c mice per group were administered orally (PO) at a dose of 5 mg/kg with an administration volume of 10 mL/kg.
After overnight fasting, 3 male Balb/c mice per group were administered intravenously (IV) at a dose of 1 mg/kg with an administration volume of 5 mL/kg.
0.04 mL of blood was collected from the orbit of the experimental animals before administration and at 0.25 h, 0.5 h, 1.0 h, 2.0 h, 4.0 h, 6.0 h, 8.0 h, and 24.0 h after administration and placed in an EDTA-2K test tube, and the test tube was centrifuged at 8000 rpm for 6 min at 4° C. to separate the plasma, which was stored at −80° C.; and the animals were fed 4 h after administration.
The final determination results were obtained by using LCMS/MS method.

- EC50 [1]: 0.07 µM
- hsF (human selective factor: ratio of CYP11B1 EC50 to CYP11B2 EC50) [2]: 144×
- AUC(0-inf) [5]: 20.8 µg·h/mL
- AUC(0-t) [5]: 20.8 µg·h/mL
- Cmax [5]: 3.77 µg/mL
- Tmax [5]: 0.3 h
- half-life [5]: 2.7 h
- MRT inf ([5]; read-out: MRT0-∞): 4.7 h
Compound: CCC(=O)N[C@@H]1CCCc2c(-c3ccc4c(c3)COC(=O)N4C)cncc21 [Example 1-A]
- Cortisol, 0 ([3]; 0.1 mpk P.O.): 246 ng/mL
- Cortisol, 1 h ([3]; 0.1 mpk P.O.): 360 ng/mL
- Cortisol, 0 ([3]; 0.3 mpk P.O.): 230 ng/mL
- Cortisol, 1 h ([3]; 0.3 mpk P.O.): 355 ng/mL
- Cortisol, 0 ([3]; 1 mpk P.O.): 215 ng/mL
- Cortisol, 1 h ([3]; 1 mpk P.O.): 315 ng/mL
- Cortisol, 0 ([3]; 3 mpk P.O.): 225 ng/mL
- Cortisol, 1 h ([3]; 3 mpk P.O.): 326 ng/mL
- Aldosterone, 0 ([4]; 0.1 mpk P.O.): 0.38 ng/mL
- Aldosterone, 0.5 h ([4]; 0.1 mpk P.O.): 0.33 ng/mL
- Aldosterone, 0 ([4]; 0.3 mpk P.O.): 0.23 ng/mL
- Aldosterone, 0.5 h ([4]; 0.3 mpk P.O.): 0.17 ng/mL
- Aldosterone, 0 ([4]; 1 mpk P.O.): 0.12 ng/mL
- Aldosterone, 0.5 h ([4]; 1 mpk P.O.): 0.15 ng/mL
- Aldosterone, 0 ([4]; 3 mpk P.O.): 0.13 ng/mL
- Aldosterone, 0.5 h ([4]; 3 mpk P.O.): 0.09 ng/mL

- hsF (human selective factor: ratio of CYP11B1 EC50 to CYP11B2 EC50) [2]: 174×
Compound: CCC(=O)N[C@@H]1CCCc2c(-c3ccc4c(c3)OCC(=O)N4C)cncc21 [Example 2-A]

- EC50 [1]: 0.035 µM
Compound: CN1C(=O)CCc2cc(-c3cncc4c3CCC[C@H]4NC(=O)CC34CC(C3)C4)ccc21 [Example 37]

- EC50 [1]: 0.048 µM
Compound: CCS(=O)(=O)N1CC(Oc2cncc(-c3ccc4c(c3)COC(=O)N4C)c2)C1 [Example 58, 6-(5-((1-(Ethylsulfonyl)azetidin-3-yl)oxy)pyridin-3-yl)-1-methyl-1,4-dihydro-2H-benzo[d][1,3]oxazin-2-one]

- hsF (human selective factor: ratio of CYP11B1 EC50 to CYP11B2 EC50) [2]: >1279×
Compound: CN1C(=O)OCc2cc(-c3cncc(N4CC5(CN(C(=O)c6cnn(C)c6)C5)C4)c3)ccc21 [Example 60, 1-Methyl-6-(5-(6-(1-methyl-1H-pyrazole-4-carbonyl)-2,6-diazaspiro[3.3]heptan-2-yl)pyridin-3-yl)-1,4-dihydro-2H-benzo[d][1,3]oxazin-2-one]

- EC50 [1]: 0.007 µM
- hsF (human selective factor: ratio of CYP11B1 EC50 to CYP11B2 EC50) [2]: 394×
Compound: CN1C(=O)OCc2cc(-c3cncc(C4=CCN(S(=O)(=O)C5CC5)CC4)c3)ccc21 [Example 68, 6-(1′-(Cyclopropylsulfonyl)-1′,2′,3′,6′-tetrahydro-[3,4′-bipyridine]-5-yl)-1-methyl-1,4-dihydro-2H-benzo[d][1,3]oxazin-2-one]
